Measurements from US12365655B2, “Compounds” (CTXT PTY LTD, priority 2018, dated 2025).
Structures can show the parent of a compound that is named as a salt.

Columns and labels:
MOZ-KAT6A = MOZ-KAT6A (Homo sapiens, UniProt Q92794, A567V); assay: Acetyltransferase biochemical assay (AlphaScreen), KAT6A
TIP60-KAT5 = TIP60-KAT5 (Homo sapiens, UniProt Q92993); assay: Acetyltransferase biochemical assay (AlphaScreen), KAT5
HBO-KAT7 = HBO-KAT7 (Homo sapiens, UniProt O95251); assay: Acetyltransferase biochemical assay (AlphaScreen), KAT7
Chain of HBO-KAT7 (O95251 with tags, fused parts or gaps): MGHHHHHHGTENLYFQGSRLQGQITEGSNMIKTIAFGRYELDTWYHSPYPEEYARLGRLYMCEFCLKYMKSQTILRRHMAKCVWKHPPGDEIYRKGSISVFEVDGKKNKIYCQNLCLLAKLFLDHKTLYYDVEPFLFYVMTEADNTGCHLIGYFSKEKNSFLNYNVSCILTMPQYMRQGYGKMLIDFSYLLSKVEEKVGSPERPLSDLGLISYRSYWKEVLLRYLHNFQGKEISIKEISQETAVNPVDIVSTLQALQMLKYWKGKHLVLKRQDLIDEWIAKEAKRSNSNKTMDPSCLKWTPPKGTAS

Chain of MOZ-KAT6A (Q92794 with tags, fused parts or gaps A567V): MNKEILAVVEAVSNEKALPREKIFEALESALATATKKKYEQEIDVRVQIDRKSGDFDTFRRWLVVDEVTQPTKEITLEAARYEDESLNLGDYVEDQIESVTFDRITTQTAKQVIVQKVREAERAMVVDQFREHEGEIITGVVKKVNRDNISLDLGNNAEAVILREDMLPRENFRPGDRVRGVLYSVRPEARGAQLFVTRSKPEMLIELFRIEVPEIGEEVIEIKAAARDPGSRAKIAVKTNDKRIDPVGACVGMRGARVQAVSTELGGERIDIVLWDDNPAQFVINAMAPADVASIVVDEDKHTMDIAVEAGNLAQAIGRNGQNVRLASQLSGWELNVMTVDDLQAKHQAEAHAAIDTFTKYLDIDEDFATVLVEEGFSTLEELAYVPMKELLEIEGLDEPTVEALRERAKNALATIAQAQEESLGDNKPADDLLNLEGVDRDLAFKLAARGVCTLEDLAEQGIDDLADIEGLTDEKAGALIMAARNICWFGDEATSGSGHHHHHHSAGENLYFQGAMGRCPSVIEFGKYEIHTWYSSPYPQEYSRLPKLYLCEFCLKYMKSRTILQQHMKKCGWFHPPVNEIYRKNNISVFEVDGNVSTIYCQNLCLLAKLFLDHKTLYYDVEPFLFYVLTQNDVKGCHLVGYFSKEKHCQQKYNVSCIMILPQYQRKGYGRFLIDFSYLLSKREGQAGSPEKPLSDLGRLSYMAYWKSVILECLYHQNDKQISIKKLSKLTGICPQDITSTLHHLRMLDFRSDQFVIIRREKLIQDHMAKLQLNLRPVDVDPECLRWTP
Chain of TIP60-KAT5 (Q92993 with tags, fused parts or gaps isoform Q92993-2): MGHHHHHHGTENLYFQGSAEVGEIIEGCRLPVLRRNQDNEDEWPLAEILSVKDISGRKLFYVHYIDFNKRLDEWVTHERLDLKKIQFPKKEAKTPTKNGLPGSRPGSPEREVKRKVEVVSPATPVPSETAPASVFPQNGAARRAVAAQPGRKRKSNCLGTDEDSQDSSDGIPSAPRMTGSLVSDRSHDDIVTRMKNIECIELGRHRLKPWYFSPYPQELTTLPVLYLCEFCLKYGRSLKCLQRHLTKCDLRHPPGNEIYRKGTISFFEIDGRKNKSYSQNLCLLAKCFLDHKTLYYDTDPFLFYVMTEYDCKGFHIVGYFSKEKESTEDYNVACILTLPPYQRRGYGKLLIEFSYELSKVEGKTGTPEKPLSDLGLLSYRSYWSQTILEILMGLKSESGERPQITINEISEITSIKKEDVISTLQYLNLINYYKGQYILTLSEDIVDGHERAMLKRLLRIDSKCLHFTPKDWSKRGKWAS

SMILES | IC50 (MOZ-KAT6A) | IC50 (TIP60-KAT5) | IC50 (HBO-KAT7)
O=S(=O)(Nc1noc2cccc(Cl)c12)c1ccc(Br)cc1OC(F)(F)F [Example 32, 4-bromo-N-(4-chlorobenzo[d]isoxazol-3-yl)-2-(trifluoromethoxy) benzenesulfonamide] | 31.1 µM | 56 µM | 14.9 µM
COc1ccccc1S(=O)(=O)Nc1noc2cc(Cl)ccc12 [Example 158] | 62.6 µM | > 125 µM | 44.9 µM
CCc1ccc(OC)c(S(=O)(=O)Nc2noc3cc(-n4ccnn4)ccc23)c1 [Example 125] | 24.5 µM | > 125 µM | 85.8 µM
COc1ccc(C(C)C)cc1S(=O)(=O)Nc1noc2cccc(Cl)c12 [Example 41, N-(4-chlorobenzo [d]isoxazol-3-yl)-5-isopropyl-2-methoxybenzene sulfonamide] | 4.27 µM | 65.1 µM | 11.8 µM
CCc1ccc(OC)c(S(=O)(=O)Nc2noc3ccc(C(=O)N(C)C)cc23)c1 [Example 231, 3-((5-Ethyl-2-methoxyphenyl)sulfonamido)-N,N-dimethylbenzo[d]isoxazole-5-carboxamide] | 59 µM | > 125 µM | > 125 µM
COc1cc2c(c(OC)c1S(=O)(=O)Nc1noc3cccc(OC)c13)CCC2 [Example 106, 4,6-Dimethoxy-N-(4-methoxybenzo[d]isoxazol-3-yl)-2,3-dihydro-1H-indene-5-sulfonamide] | 0.782 µM | 14.3 µM | 3.98 µM
COc1cc(C)c(Cl)cc1S(=O)(=O)Nc1noc2ccccc12 [Example 51, N-(benzo[d]isoxazol-3-yl)-5-chloro-2-methoxy-4-methylbenzene sulfonamide] | 15 µM | 87.7 µM | 28.3 µM
O=S(=O)(Nc1noc2cccc(Cl)c12)c1cc(OCC(F)(F)F)ccc1OCC(F)(F)F [Example 10, N-(4-chlorobenzo [d]isoxazol-3-yl)-2,5-bis(2,2,2-trifluoroethoxy) benzenesulfonamide] | 17.5 µM | 93.7 µM | 54.1 µM
COc1cc2c(cc1S(=O)(=O)Nc1noc3ccc(Br)cc13)CCCC2 [Example 113, N-(5-bromobenzo[d]isoxazol-3-yl)-3-methoxy-5,6,7,8-tetrahydronaphthalene-2-sulfonamide] | 0.775 µM | 4.84 µM | 0.914 µM
COc1ccc(Oc2ccccc2)cc1S(=O)(=O)Nc1noc2cccc(OC)c12 [Example 99, 2-Methoxy-N-(4-methoxybenzo[d]isoxazol-3-yl)-5-phenoxybenzenesulfonamide] | 2.1 µM | 9.7 µM | 5.74 µM
CCc1ccc(OC)c(S(=O)(=O)Nc2noc3cccc(-c4cncnc4)c23)c1 [Example 203, 5-Ethyl-2-methoxy-N-(4-(pyrimidin-5-yl)benzo[d]isoxazol-3-yl)benzenesulfonamide] | 22.6 µM | 74.3 µM | 23.4 µM
O=S(=O)(Nc1noc2cccc(Cl)c12)c1cccc2scnc12 [Example 15, N-(4-chlorobenzo [d]isoxazol-3-yl)benzo [d]thiazole-4-sulfonamide] | 1.91 µM | 7.29 µM | 1.46 µM
CCc1ccc(OC)c(S(=O)(=O)Nc2noc3ccc(CN)cc23)c1 [Example 226] | 10.8 µM | 80.3 µM | 38 µM
CCc1ccc(OC)c(S(=O)(=O)Nc2noc3cccc(C4CC4)c23)c1 [Example 200] | 0.364 µM | 4.73 µM | 0.678 µM
Cc1nnc(-c2cccc(S(=O)(=O)Nc3noc4ccccc34)c2)o1 [Example 67, N-(benzo[d]isoxazol-3-yl)-3-(5-methyl-1,3,4-oxadiazol-2-yl)benzene sulfonamide] | 22.7 µM | 115 µM | > 125 µM
CCc1ccc(OC)c(S(=O)(=O)Nc2noc3cccc(C4CCCCC4)c23)c1 [Example 201] | 1.48 µM | 21.8 µM | 0.773 µM
O=S(=O)(Nc1noc2ccccc12)c1cccc(Cl)c1Cl [Example 60, N-(benzo[d]isoxazol-3-yl)-2,3-dichlorobenzene-sulfonamide] | 116 µM | > 125 µM | > 125 µM
CCc1ccc(OC)c(S(=O)(=O)Nc2noc3cc(C4CC4)ccc23)c1 [Example 195] | 1.32 µM | 16.7 µM | 4.96 µM
COc1ccc(C(C)(C)C)cc1S(=O)(=O)Nc1noc2cccc(Cl)c12 [Example 40, 5-(tert-butyl)-N-(4-chlorobenzo[d]isoxazol-3-yl)-2-methoxy benzenesulfonamide] | 2.13 µM | 121 µM | 19.9 µM
COc1cc(CN)cc(OC)c1S(=O)(=O)Nc1noc2cccc(OC)c12 [Example 210, 4-(Aminomethyl)-2,6-dimethoxy-N-(4-methoxybenzo[d]isoxazol-3-yl)benzenesulfonamide hydrochloride] | 8.53 µM | > 125 µM | 6.54 µM
CCc1ccc(OC)c(S(=O)(=O)Nc2noc3cccc(CC)c23)c1 [Example 199] | 0.709 µM | 14.9 µM | 0.632 µM
COc1cc(C)c(C(C)C)cc1S(=O)(=O)Nc1noc2cccc(Cl)c12 [Example 37, N-(4-chlorobenzo [d]isoxazol-3-yl)-5-isopropyl-2-methoxy-4-methylbenzenesulfonamide] | 24.8 µM | > 125 µM | 114 µM
CCc1ccc(OC)c(S(=O)(=O)Nc2noc3c(-c4ncccn4)cccc23)c1 [Example 136, 5-Ethyl-2-methoxy-N-(7-(pyrimidin-2-yl)benzo[d]isoxazol-3-yl)benzenesulfonamide] | 34.3 µM | > 125 µM | 28.3 µM
O=S(=O)(Nc1noc2cccc(Cl)c12)c1ccc(OCc2ccccc2)cc1 [Example 9, 4-(benzyloxy)-N-(4-chlorobenzo[d]isoxazol-3-yl)benzenesulfonamide] | 26.8 µM | 41 µM | 8.42 µM
COc1ccccc1S(=O)(=O)Nc1noc2ccccc12 [Example 58, N-(benzo[d]isoxazol-3-yl)-2-methoxybenzene sulfonamide] | 28.4 µM | > 125 µM | 16.6 µM
CCc1ccc(OC)c(S(=O)(=O)Nc2noc3c(Br)cccc23)c1 [Example 137] | 8.58 µM | 14.2 µM | 6.56 µM
O=S(=O)(Nc1noc2cccc(Cl)c12)c1cccc2c1OCC2 [Example 180, N-(4-Chlorobenzo[d]isoxazol-3-yl)-2,3-dihydrobenzofuran-7-sulfonamide] | 9.44 µM | 25.5 µM | 1.76 µM
COc1cc(C)c(C)cc1S(=O)(=O)Nc1noc2cccc(Cl)c12 [Example 33, N-(4-chlorobenzo [d]isoxazol-3-yl)-2-methoxy-4,5-dimethylbenzenesulfonamide] | 6.85 µM | 90.5 µM | 11.4 µM
Cc1c(Cl)cccc1S(=O)(=O)Nc1noc2ccccc12 [Example 59, N-(benzo[d]isoxazol-3-yl)-3-chloro-2-methylbenzene-sulfonamide] | 49.4 µM | > 125 µM | > 125 µM
COc1ccc2cccnc2c1S(=O)(=O)Nc1noc2cccc(OC)c12 [Example 98, 7-Methoxy-N-(4-methoxybenzo[d]isoxazol-3-yl)quinoline-8-sulfonamide] | 5.6 µM | 31.3 µM | 3.41 µM
